Entries after “also recorded” stand apart in the source; their conditions may differ.
Legend:
[1] = tested on: multiple myeloma cell lines (LP1, OPM2, MOLP1, RPMI8226, U266B1, NCIH929); test: Cell proliferation (EdU as indicator) in multiple myeloma cell lines; type: cell-based; conditions: FGFR3 positive and FGFR3 negative MM cell lines
Description: (§1) Six multiple myeloma cell lines were tested in this example for the expression level of p90RSK. The cell lines included LP1, OPM2, MOLP1, RPMI8226, U266B1, and NCIH929. Beta-actin was used as control, and the expression levels of FGF receptor 3 (FGFR3), phospho-S380 RSK. and RSK1/RSK2/RSK3 were also measured.
(§2) Cerdulatinib was tested with same cell lines as used in Example 1. […] Also like BI-D1870, there was no relationship between the activity of cerdulatinib and the status of FGFR3.

[2] = tested on: multiple myeloma cell lines (LP1, OPM2, MOLP1, RPMI8226, U266B1, NCIH929); test: Caspase3 activation (apoptosis) in multiple myeloma cell lines; type: cell-based; conditions: FGFR3 positive and FGFR3 negative MM cell lines; BI-D1870 at 1.2 μM, 2.5 μM, 5 μM
Description: as §1
A p90RSK inhibitor, BI-D1870 (see, e.g., Sapkota et al., Biochem J. 2007, 401(Pt 1): 29-38), was added to the medium for each cell line at three difference concentrations. 1.2 μM, 2.5 μM, and 5 μM.
as §2

[3] = tested on: DLBCL, MCL, Burkitt's lymphoma, ALL, MM and AML cells; test: Cytotoxicity (IC50) across cancer types; type: cell-based
Description: The cytotoxicity of cerdulatinib was also compared to Comp A in other types of cancer cells.

[4] = tested on: patients with CLL/SLL or B cell NHL; test: Clinical response by standard criteria in dose escalation study; type: in vivo, human; conditions: 28-day cycles
Description: (§3) Methods: This experiment was a 3+3 dose escalation study with 28-day cycles and doses studied ranging from 15 mg to 100 mg QD, and up to 45 mg BID. PK, PD, and safety were monitored. Clinical response was assessed by standard criteria. The level of inhibition of SYK and JAK was determined by multiple whole blood assays measuring signaling via BCR, IL2, IL4, IL6, and GM-CSF. Serum markers of tumor burden-CCL3, CCL4, and other markers of inflammation-B2M, CRP, were also measured.
(§4) Results: As of Jan. 7, 2016, 41 patients (pt) with CLL/SLL or B cell NHL were dosed. Median age was 67 years (range 23-85) and median prior therapies (tx) was 3 (range 1-8). […] The patient with grade 3 AST had tumor progression to the liver. The pancreatitis at 45 mg BID was considered at DLT and the cohort is expanding to approximately 6 patients.

SYK and JAK signaling = test: Whole blood assays of SYK and JAK signaling (BCR, IL2, IL4, IL6, GM-CSF); type: in vivo, human; conditions: 45 mg BID; steady-state Cmin; peripheral blood assays
Description: as §3

[5] = tested on: AML (Acute Myeloid Leukemia) cell lines; test: Cytotoxicity in AML cell lines; type: cell-based; conditions: four different AML cell lines; compared with Ruxolitinib and Comp A
Description: The cytotoxicity of cerdulatinib in AML (Acute Myeloid Leukemia) was tested in four different cell lines.

[6] = Pharmacokinetics in 3+3 dose escalation study; type: in vivo, human
Description: as §3

[7] = tested on: patients with CLL/SLL or B cell NHL; test: Safety in 3+3 dose escalation study; type: in vivo, human
Description: as §3, §4

[8] = tested on: serum markers of inflammation (B2M, CRP); test: Serum markers of inflammation in dosed patients; type: in vivo, human; conditions: once daily 40-100 mg
Description: as §3

| SMILES | inhibition of cell proliferation (EdU as indicator) [1] | activation of Caspase3 expression (indicator of apoptosis) [2] | IC50 (cytotoxicity) compared to Comp A [3] | time at which responses occurred [4] | inhibition of SYK and JAK (SYK and JAK signaling) | cytotoxicity in AML cells [5] | steady-state Cmin ([6]; 45 mg BID) | change in systemic exposure ([6]; 45 mg BID relative to previous dose levels) | average steady state Cmin ([6]; 40-100 mg dose range, once daily) [nM] | Cmax ([6]; human, in vivo, 40-100 mg dose range, once daily, read-out: average steady state Cmax) [nM] | half-life ([6]; human, in vivo, patients, once daily dosing) [h] | solubility / dissolution ([6]; inferred from plateau of exposure over 40-100 mg) | tolerability ([7]; 15 mg to 100 mg QD, up to 45 mg BID, 41 patients) | treatment emergent AEs of ≥ grade 3 deemed related to study drug ([7]; 30 mg) | treatment emergent AEs of ≥ grade 3 deemed related to study drug ([7]; 45 mg) | treatment emergent AEs of ≥ grade 3 deemed related to study drug ([7]; 45 mg BID, considered DLT) | treatment emergent AEs of ≥ grade 3 deemed related to study drug ([7]; 50 mg) | treatment emergent AEs of ≥ grade 3 deemed related to study drug ([7]; 65 mg) | treatment emergent AEs of ≥ grade 3 deemed related to study drug ([7]; 100 mg) | inhibition of serum markers of inflammation [8] |
| --- | --- | --- | --- | --- | --- | --- | --- | --- | --- | --- | --- | --- | --- | --- | --- | --- | --- | --- | --- | --- |
| CC(C)CCN1c2nc(Nc3cc(F)c(O)c(F)c3)ncc2N(C)C(=O)C1C (stereo not shown) [BI-D1870, reference compound] | dose-dependently inhibited cell proliferation | dose-dependently activated the expression of Caspase3 | – | – | – | – | – | – | – | – | – | – | – | – | – | – | – | – | – | – |
| CCS(=O)(=O)N1CCN(c2ccc(Nc3ncc(C(N)=O)c(NC4CC4)n3)cc2)CC1 [cerdulatinib, 4-(cyclopropylamino)-2-(4-(4-(ethylsulfonyl)piperazin-1-yl)phenylamino)pyrimidine-5-carboxamide] | dose-dependently inhibited cell proliferation | activated apoptosis; also recorded: dose-dependently activated caspase3 expression | more potent than Comp A | 2 cycles of tx | complete inhibition | more active than Ruxolitinib, a JAK inhibitor, and Comp A; also recorded: active in killing AML cells | approximately 1.5 μM | approximate doubling in exposure; also recorded: doubled | 700 ± 200 | 1380 | 12 to 16 | low pH solubility appeared to limit dissolution | well tolerated | neutropenia (n=2), anemia (n=1), and pneumocystis pneumonia (grade 5, n=1) | anemia, AST increase, hypotension, thrombocytopenia (n=1 for each), and fatigue (n=2) | pancreatitis (n=1) | anemia, neutropenia, abdominal pain, pneumonia, and fatigue (n=1 for each) | diarrhea and fatigue (n=1 for each) | nausea (n=1) | Significant inhibition |
